Laboratory results published in patent US8710184B2, “Motilin-like peptide compound having transmucosal absorbability imparted thereto” (Daiichi Sankyo Company, Limited, priority 2009, dated 2014).
Several values for one entry are separate records, joined by “and”; a condition that tells them apart may be missing. Equal values may be shown once. No end group written: not given here.

Key:
in vivo = details: male, cynomolgus monkey, iv, 10 ug/kg
Description: In this example, native motilin and a motilin derivative compound were administered intravenously to monkeys and their plasma concentrations were measured.
As test animals, 8- to 9-year old male cynomolgus monkeys (N=1-2 per group) were subjected to the following experiment. Native motilin and compound 2 were each dissolved in a 5% mannitol solution to prepare solutions at a concentration of 100 μg/mL; the solutions were administered to the animals at a dose of 0.1 mL/kg through the right cephalic vein by means of a syringe and a needle (both being products of TERUMO). Before administration and 5, 10, 15, 20, 30 and 60 minutes after administration, blood was sampled through the left cephalic vein.
To the collected sample, a 10% EDTA.2Na.2H2O solution was immediately added at a volume ratio of 1:100 and the plasma was separated by centrifugation. The plasma was immediately mixed with a 5,000 IU/mL aprotinin solution at a volume ratio of 1:10 and stored at −80° C. until use in measurement.
Measurement of the plasma concentrations of native motilin and the motilin derivative compound was conducted by the radioimmunoassay (RIA) technique using an anti-motilin antibody. Stated more specifically, after adding an anti-motilin antibody to the plasma sample, [^125I-Tyr7] motilin was added for a competitive reaction to take place. By subsequent addition of a secondary antibody, the motilin binding to the anti-motilin antibody was precipitated and after separating the supernatant, the radioactivity in the precipitating faction was measured with a γ-counter (product of PerkinElmer).
From the obtained profiles for the plasma concentrations of native motilin and the motilin derivative compound, the plasma concentration at time zero (C0) and the area under curve for plasma concentrations (AUC) were calculated as pharmacokinetic parameters; C0 was determined by extrapolation and AUC by the trapezoidal method.

[1] = Pharmacokinetic experiment on intravenously administered native motilin in rats (RIA); type: in vivo; details: male, SD, rat, plasma, 100 ug/kg, intravenous, 100 μg/kg
Description: Native motilin was administered intravenously to rats and its plasma levels were measured.
As test animals, 7-wk old male SD rats (purchased from CHARLES RIVER LABORATORIES JAPAN, INC.) that consisted of 3 rats per a group were subjected to the following experiment. Native motilin was dissolved in a 5% mannitol solution to prepare a solution at a concentration of 100 μg/mL and this solution was administered to each rat at a dose of 1 mL/kg through the tail vein by means of a syringe and a 26G needle (both being products of TERUMO).

[2] = Pharmacokinetic experiment on pulmonarily administered native motilin and motilin derivative compounds in rats (RIA); type: in vivo, rat; details: for Cmax / AUC: male, SD, plasma; for Cmax / AUC / BA: 25 μg/rat; for AUC: trapezoidal method; for BA: relative to AUC of intravenous native motilin
Description: As test animals, 7- to 10-wk old male SD rats (purchased from CHARLES RIVER LABORATORIES JAPAN, INC.) that consisted of 3 rats per a group were subjected to the following experiment. Native motilin or motilin derivative compounds were dissolved in an aqueous solution of 0.1 N acetic acid to prepare a solution at a concentration of 1 mg/mL and 25 μL of the solution was administered into the polyethylene tube through the trachea by means of an intratracheal liquid spraying device (MicroSprayer; product of Penn Century). […] In the measurement, the respective derivatives were used as standard substances to construct calibration curves for determining the plasma levels.
Using these values, bioavailability (BA (%)) was calculated by the following equation: BA(%)=[(AUC/Dose)/(AUC(motilin—iv)/Dose(motilin—iv))]×100 • AUC: AUC (ng·min/mL) after pulmonary administration • Dose: dose (μg/kg) in pulmonary administration • AUC (motilin_iv): AUC (ng·min/mL) after intravenous administration of native motilin • Dose (motilin_iv): dose (μg/kg) in intravenous administration of native motilin.

[3] = Motilin degradation experiment using a lung homogenate supernatant; type: in vitro ADME
From the text: To solve this problem, the present inventors first assumed that motilin might be degraded after noninvasive transmucosal administration and performed a motilin degradation experiment using a lung homogenate supernatant.

[4] = Pharmacokinetic experiment on intranasally administered native motilin and a motilin derivative compound in monkeys (RIA); type: in vivo, cynomolgus monkey; details: intranasal administration; for BA: relative to intravenous AUC of each compound; for AUC / Cmax: male, cynomolgus monkey, plasma, inhaled or intranasal, mean for N = 1-2
Description: This example was conducted with a view to measuring by RIA the changes that occurred in monkeys in terms of the plasma concentrations of transnasally administered native motilin and a motilin derivative compound.
In the experiment, 10- to 11-year old male cynomolgus monkeys were used. Native motilin or compound 2 and microcrystalline cellulose were mixed at a ratio of 1:40 to prepare intranasal preparations, 20-mg portions of which were filled into gelatin capsules. Each capsule was administered into the right nasal cavity of each animal by means of an intranasal administration device (product of Hitachi Automotive Systems, Ltd.). Before administration and 5, 10, 15, 20, 30, 60, 120 and 180 minutes after administration, blood was sampled through the cephalic vein. The collected blood sample was treated as in Comparative Example 2 to separate plasma and the concentrations of native motilin and the motilin derivative compound in plasma were measured by RIA. In the measurement, the respective derivatives were used as standard substances to construct calibration curves for determining the plasma levels.
Using these values, bioavailability (BA (%)) was calculated by the following equation: BA(%)=[(AUC/Dose)/(AUC(iv)/Dose(iv))]×100 • AUC: AUC (ng·min/mL) after intranasal administration • Dose: dose (μg/kg) in intranasal administration • AUC (iv): AUC (ng·min/mL) after intravenous administration of each compound • Dose (iv): dose (μg/kg) in intravenous administration of each compound.

[5] = system: conscious dog's gastrointestinal tract; test: Fasting IMC inducing activity in conscious dogs (force transducers); type: in vivo
From the text: More specifically, dogs under anesthesia were subjected to a surgical operation in which force transducers were sutured to the serous membranes of the gastric antrum, duodenum, jejunum and ileum along the ring-shaped muscle and, thereafter, the strain from each transducer was sent to a recorder via an amplifier.

[6] = HPLC fractionation and RIA of rat plasma after pulmonary administration (unaltered form vs metabolites); type: in vivo
Description: This example was conducted with a view to measuring by RIA the changes that occurred in rats in terms of the plasma concentrations of pulmonarily administered native motilin and motilin derivative compounds. When the RIA technique is applied, all substances that react with the anti-motilin antibody are detected, so aside from unaltered forms, metabolites that react with the antibody are also likely to be detected.
To be more specific, a polyethylene tube (PE-240; product of Clay Adams) was inserted into the trachea of 7-wk old male SD rats (purchased from CHARLES RIVER LABORATORIES JAPAN, INC.); native motilin or compound 2 (MT114) was dissolved in an aqueous solution of 0.1 N acetic acid to prepare a solution at a concentration of 1 mg/mL and 25 μL of the solution was administered into the polyethylene tube through the trachea by means of an intratracheal liquid spraying device (MicroSprayer; product of Penn Century). Five minutes after the administration, blood was sampled through the abdominal aorta and treated as in Comparative Example 1 to separate plasma. […] For each sample, an eluate was sampled at one-minute intervals from just after the sample injection to a 40-minute after sample injection and the immunological activity in each fraction was measured by RIA.

[7] = Non-Patent Document 18; cited from earlier work
[8] = other: pulmonary administration (intratracheal liquid spray)
[9] = inhaled or intranasal, 25 ug/animal, pulmonary administration

CC[C@H](C)[C@H](NC(=O)[C@@H]1CCCN1C(=O)[C@@H](NC(=O)[C@@H](N)Cc1ccccc1)C(C)C)C(=O)N[C@@H](Cc1ccccc1)C(=O)N[C@H](C(=O)N[C@@H](Cc1ccc(O)cc1)C(=O)NCC(=O)N[C@@H](CCC(=O)O)C(=O)N[C@@H](CC(C)C)C(=O)N[C@@H](CCC(N)=O)C(=O)N[C@@H](CCCNC(=N)N)C(=O)N[C@@H](CCSC)C(=O)N[C@@H](CCC(N)=O)C(=O)N[C@@H](CCC(=O)O)C(=O)N[C@@H](CCCCN)C(=O)N[C@@H](CCC(=O)O)C(=O)N[C@@H](CCCNC(=N)N)C(=O)N[C@@H](CC(N)=O)C(=O)N[C@@H](CCCCN)C(=O)NCC(=O)N[C@@H](CCC(N)=O)C(=O)O)[C@@H](C)O [Native motilin, reference compound]
AUC (in vivo): 13.1 ng·h/mL
C0 (in vivo): 233 ng/mL
C0 ([1]; by extrapolation, read-out: plasma concentration at time zero (C0)): 1800 ng/mL
AUC ([1]; trapezoidal method, read-out: area under curve for plasma concentrations (AUC) (converted)): 60 ng·h/mL
Cmax [2, 8]: 7.84 ± 0.98 ng/mL
AUC [2, 8]: 1.58 ng·h/mL
BA ([2]; pulmonary administration): 3.3 ± 0.1%
BA ([2]; pulmonary administration, listed as native motilin): 3.3%
degradation in lung homogenate supernatant [3]: found to be degraded
BA [4]: 3.6%
AUC ([4]; 0.49 mg/animal): 4.02 ng·h/mL
Cmax ([4]; 0.49 mg/animal): 13.6 ng/mL
IMC Inducing activity ([5]; fasting period, intravenous, 0.1 μg/kg): Positive
duration of contraction of the duodenum ([5]; intravenous 0.1 μg/kg, FIG. 1): about 10 minutes
duration of contraction of the gastric antrum ([5]; intravenous 0.1 μg/kg, FIG. 1): about 10 minutes
immunological activity peaks in HPLC fractions of plasma ([6]; rat, in vivo): detected only at the elution point corresponding to the administered compound (in unaltered form)

FVPIFTYGELQRLQEKERNKPQ [Compound 2]
AUC (in vivo): 15.4 ng·h/mL
C0 (in vivo): 273 ng/mL
Cmax [2, 9]: 26.6 ± 11.3 ng/mL
AUC [2, 9]: 5.84 ng·h/mL
BA ([2]; pulmonary administration): 10.4% and 10.4 ± 4.3%
profile of plasma concentration compared with native motilin ([2]; pulmonary administration, FIG. 3): high peak levels
profile of plasma concentration compared with native motilin ([4]; FIG. 5): a high peak level
BA [4]: 5.1%
AUC [4]: 6.02 ng·h/mL
Cmax [4]: 23.5 ng/mL
immunological activity peaks in HPLC fractions of plasma ([6]; rats, pulmonary administration, plasma 5 minutes after administration): detected only at the elution point corresponding to the administered compound (in unaltered form)

atilmotin
half-life in plasma [7]: about 10 minutes
